One block for each substance: values may come before it.
Tests used:
[1] = Critical assembly concentration (CAC) by pyrene fluorescence probe; assay type: physicochemical; conditions: for I1/I3: pyrene fluorescence
Excerpt: In order to study the molecular design and their assembly behavior, we modular designed and synthesized seven molecules (Table 1), which respectively were BIVA probe: M1 (mPEG-GPAKLVFFGC(IR783)GRGD); the non- FAP-α tailoring molecule: M2 (mPEG-AGGKLVFFGC(IR783)GRGD) scrambled response tailoring motif of Gly-Pro-Ala with Ala-Gly-Gly; the non-labeling molecule of M1: M3 (mPEG-GPAKLVFFGCGRGD) removed IR783 labeling; FAP-α tailoring residue of M1: R-M1 (AKLVFFGC(IR783)GRGD); the non-targeting molecule: M4 (mPEG-GPAKLVFFGC(IR783)GDTG) scrambled targeting tailoring motif of Arg-Gly-Asp with Asp-Thr-Gly; the non-labeling molecule of M2: M5 (mPEG-AGGKLVFFGCGRGD) removed IR783 labeling; FAP-α tailoring residue of M3: R-M3 (AKLVFFGCGRGD). All the synthesized procedure (Supplementary Fig. 1) and characterizations of these seven molecules can be found in SI (Supplementary Figs. 2–8). […] Without IR783 labeling, molecules of M3 and M5 decreased the CAC value in solution relative to M1 and M2, which could be attributed to the proximity of the steric hindrance of hydrophilic IR783 to the self-assembly motif (Supplementary Fig. 9). […] The CAC was quantitatively calculated by fluorescence probe of pyrene.

[2] = Secondary structure proportions from CD spectra; assay type: physicochemical; conditions: calculated by Reed's Reference based on CD spectra; DI water
Excerpt: To further evaluate the assembled structures, the corresponding circular dichroism (CD), Fourier transform infrared (FTIR) spectroscopy, and wide-angle X-ray scattering (WAXS) spectroscopy were applied. […] The FITR spectra of M1 and M3 in Fig. 3b observed the intermolecular interactions. The peaks at 1629 cm^−1, 1675 cm^−1, and 1698 cm^–1 of M3 indicated anti-parallel β-sheet structure (represent by green arrow heads), peaks at 1648 cm^−1 and 1663 cm^−1 indicated parallel beta sheet structure (represent by blue arrow heads), the existence of 1654 cm^−1 indicate α-Helix structure in M1 which verified the results deduced by CD in Fig. 3a[29],[30]. […] As a homologous sequence with amyloid β-protein (Aβ), the self-assembly motif with peptide sequence of KLVFFGCG had similar aggregation kinetics to (Aβ)42 peptide, which occurred via dynamic growth from oligomers to amyloid fibrils. The aggregation started from the freshly isolated monomers of R-M1, and precipitates were separated in 1 min and 1 h, respectively. […] After analyzed the CD spectra of M1, M3, and R-M1 (Fig. 3e), it can be clearly seen that the main secondary conformation of M1 was Random, the M3 was hybrid of Helix and Beta, and the R-M1 was Beta (Supplementary Table 1). All the results confirmed the conclusion from FTIR spectra. […] The dynamic growth procedure was like the 8-anilino-1-naphthalenesulfonic acid (ANS) stained curve (Supplementary Fig. 12). As known, ANS was sensitive to hydrophobic interaction. When R-M1 were in the initial oligomer, the fluorescence intensity of ANS increased due to the enhanced hydrophobicity. When the molecules were elongated and stacked in higher ordered nanofibrils, the blue shift of ANS in the β-sheet structures reduced the fluorescence. The molecular packing mode of well-ordered fibrils of R-M1 in Fig. 3g observed a weak reflection at 4.9 Å as laminates space and a strong broad reflection at 10.3 Å as sheet space, which was illustrated in the inserted figure. The fibril morphology was characterized by transmission electron microscopy (TEM) imaging (Fig. 3f). The statistical calculation of the fiber diameter in TEM images was 5.0 ± 0.4 nm (Supplementary Fig. 13), which was corresponded to the theoretical calculated two molecules length of R-M1. We assumed that the nanofibers were assembled by twisted R-M1 molecules centered on self-assembly motif.
The secondary structures of M1, M3 and R-M1 were verified by CD spectroscopy (JASCO Corporation, JC-1500) at room temperature with a cell path length of 1 cm. M1, […] and R-M1 were diluted to 100 μM with deionized water at 25 °C and allowed to stand for 12 h for complete assembly. Detail parameter setting were CD scale:200 mdeg/1.0Dod, measure range: 260~190 nm, scanning speed: 500 nm/min, bandwidth: 1.00 nm, and data pitch: 0.5 nm. All spectra were the average of three measurements.
Supplementary Table 1∣ Secondary structure proportions ofM1, M3 and R-M1 calculated by Reed’s Reference based on […]

[3] = Nanofiber dynamic growth, ThT staining; assay type: physicochemical; conditions: aggregation curve with ThT trace
[4] = tested on: MIA PaCa-2 cells; assay: Cellular imaging (CLSM) of FITC-labelled molecules; assay type: cell-based
Experimental: To further confirm this hypothesis, the M1 and M2 were equally labeled by FITC for cell imaging (Fig. 5b). To simulate the dynamic physiological condition, the cell culture medium was replaced every 15 min. After 1 h of incubation with M1 and M2 at the same molecule molar concentration, there occurred significant differences between the two molecules (Fig. 5c). […] The huge difference can be explained by the fact that the secondary assembly rate broke the balance between the targeted ligand and receptor, and thus tended to a stable assembly interaction. The retention efficiency depended on the assembly rate constant Ka. Meanwhile, the rapid dynamic assembly of BIVA probe in situ around the cell membrane, and contributed to the efficient formation and retention of nanofibers on the cell profile. When the incubation time was delayed up to 2 h, some components could be endocytosed into the cells, but most of them were found on the membranes (Supplementary Fig. 18). […] Then, the isolated cells were collected and lysed, the extracted cell membrane fragments were stained with ThT. […] In order to verify the influence of the addition of the targeting module of the probe molecules, we explored the imaging of R-M1 and M4 on cells.
(§1) Fig. 5 The BIVA effect with enhanced targeting to pancreatic tumor cell for boundaries imaging. a Illustration of BIVA effect: active targeting and assembly/aggregate induced retention (AIR) effect. b Chemical structure of FITC labeling. c 2D and 3D confocal images of M2 with active targeting property and M1 with BIVA effect on MIA PaCa-2 cells after incubation for 1 h. d The distribution of M1 on MIA PaCa-2 cell. e ThT staining of the lysed cell membrane of MIA PaCa-2. f, Illustration of migration inhibition after treated by BIVA probe. g The image of the migrated cells after treatment of PBS (blank), M2, M4, and M1. Scale bar: 100 μm. h The pie diagram of quantitative statistical calculation of the migrated cells (blue) in different groups. The blank control was set as 100% migrated cells.
MIA PaCa-2 cells were digested with trypsin, counted with cell counting plate, diluted to 1 × 10^4 with DMEM medium, and 1 mL to 1 cm diameter confocal microscope dish was taken. The cells were incubated in […] atmosphere for 24 h. The medium containing M1 and M2 (50 μM) was replaced and incubated with the cells for 2 h. The cells were washed with PBS for 3 times. CLSM (Zeiss 710) was used to image cells under 40 × objective, excitation = 488 nm, and emission >520 nm.
Supplementary Fig. 19 ∣ CLSM images of Miapaca-2 cells treated with different molecules or M1 under different conditions. […]

[5] = mouse, in vivo, iv, 16 mg/kg
[6] = tested on: MIA PaCa-2 tumor; conditions: mouse, in vivo, 16 mg/kg
Experimental: In order to reduce systemic error and individual difference, we constructed the subcutaneous pancreatic cancer model in mice for quantitatively calculating of the metabolic data.
All the animal experiments were performed in accordance with the Guide for the Care and Use of Laboratory Animals approved by the Committee for Animal Research of the National Center for Nanoscience and Technology. The MIA PaCa-2 tumor-bearing mice were intravenously injected with ICG, M1 and M2 (16 mg/kg), respectively for in vivo fluorescence imaging with in vivo spectrum imaging system. Finally, mice were sacrificed to collect the major organs and tumors for ex vivo fluorescence imaging.

[7] = tested on: MIA PaCa-2 cells; assay: Transwell migration assay; assay type: cell-based; conditions: for migrated cells (Fig S20): MIA PaCa-2 cells
Experimental: as §1
In order to further understand the contribution of the active targeting and AIR effect during locating of the cells, the cell transwell experiment was used to quantitively evaluate interference of the cell migration based on M1, M2, and M4 (Fig. 5f). As expected, untreated cells were easy to migrate to the lower chamber, while the cells treated with active targeting molecule M2 and assembled molecule M4, the migration of cell were reduced. Under the same molar concentration, the M1 treatment group had the most inference on cell migration (Fig. 5g). […] Based on those results, we speculate M1 can be more enriched in the tumor site and form fibers through assembly to inhibit tumor cell migration compared to M2 and M4 which have no ability to target and adhere on the cell membrane.
Transwell migration assay occurred in chemotaxis chambers containing 24 wells. […] Bottom chambers contained DMEM medium containing 10% FBS. After 24 h of treatment with M1, M2, and M4 (150 μM), we fixed cells using 4% paraformaldehyde and stained with 0.25% crystal violet solution. The stained cells were counted using a microscope.
Supplementary Fig. 20∣ The quantitative results of the migrated cells after treatment of PBS (blank), M2, […] and
M1 (Fig 5g). The mean of results of fiveparallel experiments is shown and data were expressed as mean ± SD (n=5).
pM1 = 5.85E-06, pM2 = 5.94E-05, pM4 = 3.16 E-04, Statisticalanalysis: one-way ANOVA followed by post hoc Tukey’s
(§2) (1 picture or pasted object on this page, not shown here)

[8] = tested on: MIA PaCa-2 cells; assay: Cytotoxicity, CCK-8 assay; assay type: cell-based; conditions: CCK-8, 24 h, at high concentration of 300 μM
Experimental: The cytotoxicity of M1 and M2 was evaluated using CCK-8 assay in MIA PaCa-2 cells. Cells were seeded into 96-well plates at a density of 5 × 10^4 cells per well and placed in an incubator for 14 h. Subsequently, the sample was diluted into a series of different concentrations (0, 50, 100, 150, 200, 250, 300, and 350 μM) and incubated with cells for 24 h. After that, 10 μL of CCK-8 solution was added to each well and incubated for 2 h. The absorbance of blank wells (Ab), sample wells (As) and control wells (Ac) were measured with a microplate reader at a test wavelength of 450 nm and a reference wavelength of 690 nm. The cell viability rate (%) is equal to (As -Ab) / (Ac -Ab) ×100%. All experiments were repeated in triplicate.
Supplementary Fig. 21∣ Cellviability assay of Miapaca-2 cells treated with a series concentration of M1 and M2 for 24 h.
Tested by Cell Counting Kit-8 (Beyotime, C0039) The mean of results of six parallel experiments isshown and data were
expressed as mean ± SD (n=6).
as §2

[9] = tested on: Recombinant Human Fibroblast Activation Protein-α (FAP-α); assay: FAP-α in buffer: 50 mM Tris, 1 M NaCl, 1 mg/mL, BSA, pH 7.5; conditions: up to 12 h
[10] = MIA PaCa-2 cells (supplement contents: Miapaca-2 cell lysis); conditions: up to 2 h
[11] = MIA PaCa-2 cells / Miapaca-2 cell lysis; conditions: up to 2 h

- I1/I3 ([1]; conc 1.56 μM): 1.233
- I1/I3 ([1]; conc 12.5 μM): 1.275
- I1/I3 ([1]; conc 25 μM): 1.246
- I1/I3 ([1]; conc 100 μM): 1.302
- I1/I3 ([1]; conc 200 μM): 1.43
Substance: AKLVFFGC(IR783)GRGD [R-M1, FAP-α tailoring residue of M1]
- Critical assembly concentration (CAC) ([1]; aqueous solution, analyzed based on pyrene fluorescence): 37.2 µM
- Secondary structure proportion: Beta [2]: 72%
- Secondary structure proportion: Helix [2]: 0.5%
- Secondary structure proportion: Random [2]: 0%
- Secondary structure proportion: Turn [2]: 27.5%
- final plain phase [3]: > 30 min
- state in the medium (solubility) ([4]; co-incubation with MIA PaCa-2 cells): insoluble suspended mixture

Substance: mPEG-AGGKLVFFGC(IR783)GRGD [M2]
- blood circulation half-life (t1/2) [5]: 1.7 ± 0.067 h
- fluorescence signal on the cell membrane ([4]; FITC-labelled molecules, MIA PaCa-2 cells, 1 h incubation, CLSM): significantly reduced the fluorescence signal
- reduction of tumor fluorescence signal between 12 h and 120 h [6]: disappeared completely
- time of distribution and accumulation in the tumor area ([6]; iv): 0.1 to 24 h
- emigrate (migrated cells relative to blank) ([7]; MIA PaCa-2, 150 μM, 24 h, blank control = 1): 0.6397
- migrated cells (Fig S20) ([7]; averge of groups 1-3): 587
- migrated cells (Fig S20) ([7]; group 1): 547
- migrated cells (Fig S20) ([7]; group 2): 625
- migrated cells (Fig S20) ([7]; group 3): 589
- cytotoxicity [8]: no obvious cytotoxicity

- cleaved bond [9]: Pro-Ala
- fragment found [10]: R-M1
- fragment found [11]: PEG residues
Substance: mPEG-GPAKLVFFGC(IR783)GRGD
